In US10231980B2, “Cortexolone 17alpha-benzoate for use in the treatment of tumours” (COSMO TECHNOLOGIES LTD., priority 2014, dated 2019):
Read-outs that look alike come from different tables or passages of the source.

Assays:
7 cancer cell lines = test: Therapeutic index over a panel of cancer cell lines; assay type: cell-based; settings: average over the cancer cell lines of Table VII
Protocol: The compound toxicity was determined as follow:
Therapeutic Index=Safety/Potency=IC50 stimulated PBMC/IC50 cancer cell

PC3 = test: ATP-dependent cell viability assay (Cell Titer Glo), Example 12; settings: for IC50: Homo sapiens
Description: (§1) Data shown in Table I were fitted through sigmoidal dose response curves and analyzed using Prizm statistical.

LNCaP = test: as above; settings: for IC50: Homo sapiens
Description: as §1

Panc1 = test: as above
Description: as §1

MiaPaca2 = test: as above
Description: as §1

stimulated PBMC = test: IC50 on stimulated (actively dividing) PBMC; assay type: cell-based, human; settings: PBMC Stim; Table IV
MCF7 = test: In vitro proliferation / cytotoxic assay on breast cancer cells (Examples 14, 25)
Protocol: as §1
For the cytotoxic assay, cells were seeded in 96-well flat bottom culture plates in media containing charcoal stripped serum. After 24 hours, test compounds were added to the cells. DMSO was used as the vehicle negative control and RU486 as the positive control. After 72 hour incubation, cells were harvested and lysed to determine cell viability using the Cell Titer Glow assay.

[1] = tested on: MiaPaca-2 pancreatic tumor xenograft; test: Human pancreatic tumor xenograft in nude mice; assay type: in vivo
Protocol: Cortexolone 17α-benzoate and Cyproterone Acetate were separately diluted in DMSO/2-hydroxypropyl β-cyclodextrin (vehicle).
The test was carried out comparing the anti-tumor activity of cortexolone 17α-benzoate at two different dosages (8.0 mg/kg, corresponding approximately at 230 μM, and 40 mg/kg, corresponding approximately at 1150 μM), versus the vehicle (i.e. 0.4% (v/v) tween 80 and 0.5% (w/v) carboxymethylcellulose in normal saline) and versus the comparator Cyproterone Acetate at two different dosages (7.4 mg/kg and 37 mg/kg).
1×10^6 MiaPaca-2 cells suspended in matrigel were sub-cutaneously injected into 6 week old athymic nude mice.
The treatment with the tested compounds, with the vehicle and with the comparative compound, was initiated after the tumor volume has reached 50 mm^3 after transplantation. All compounds were injected 100 μL/mouse of low dose solution (approximately 230 μM) or 100 μL/mouse of high dose solution (approximately 1150 μM) of cortexolone 17α-benzoate, vehicle and Cyproterone Acetate, respectively. Compounds and controls were administered subcutaneously daily for 28 days.
Tumors were measured every 4 days with a digital caliper.
The results are plotted in FIG. 1 as average change in tumor volume relative to the start of treatment. Tumor volume was calculated according to the formula 0.5236(r1)^2(r2) where r1<r2.
Error bars are the SEM for 7 to 10 mice per treatment group. P values were calculated according to the Student's t test.
Cortexolone 17α-valerate-21-propionate and Cyproterone Acetate were separately diluted in DMSO/2-hydroxypropyl β-cyclodextrin (vehicle).
The test was carried out comparing the anti-tumor activity of cortexolone 17α-valerate-21-propionate at two different dosages (approximately 8.6 mg/kg and 43 mg/kg) versus the vehicle (i.e. 0.4% (v/v) tween 80 and 0.5% (w/v) carboxymethylcellulose in normal saline) and versus the comparator Cyproterone Acetate at two different dosages (7.4 mg/kg and 37 mg/kg).
1×10^6 MiaPaca-2 cells suspended in matrigel were subcutaneously injected into 6 week old athymic nude mice.
The treatment with the tested compound, with the vehicle and with the comparative compound was initiated after the tumor has reached a volume of 50 mm^3 after implantation, injecting subcutaneously 100 μL/mouse of low dose solution (approximately 230 μM) or 100 μL/mouse of high dose solution (approximately 1150 μM) of cortexolone 17α-valerate-21-propionate, vehicle and Cyproterone Acetate, respectively. Compounds and controls were administered subcutaneously daily for 28 days. Tumors were measured every 4 days with a digital caliper.
The results are plotted in FIG. 2 as average change in tumor volume relative to the start of treatment. Tumor volume was calculated according to the formula 0.5236(r1)^2(r2) where r1<r2.
Cyproterone acetate (CPA), a well-known anti-androgen, was used as control. Briefly 1×10^6 MiaPaca2 cells suspended in matrigel were subcutaneously (sc) injected into 6 week old male athymic nude mice. Tumors were measured every 4 days with a digital caliper. Tumor volume was calculated according to the formula: 0.5236(r1)2(r2) where r1<r2. Treatment with CB-03-06 and control compounds were initiated after the tumor had reached 50 mm^3. Compounds diluted in DMSO/2-hydroxypropyl b-cyclodextrin (vehicle) were subcutaneously injected daily (100 microL/mouse) at the concentration of 40 mg/Kg daily for 28 consecutive days.

MiaPaca2 (AR low) = test: ATP-dependent proliferation assay with 10 nM DHT, pancreatic cancer cells (Examples 3, 4, 7); settings: for TI on Resting PBMC: IC50 resting PBMC / IC50 MiaPaca2; for TI on Stimulated PBMC: IC50 stimulated PBMC / IC50 MiaPaca2
Protocol: (§2) The experimental method consisted of: • 1. […] After 24 hrs, 10 nM DHT (dihydrotestosterone) with or without anti-androgen compounds, or DMSO vehicle (negative control) was added to the cultures. • 3.
(§3) Data from Experiment 1 were fitted through sigmoidal dose response curves and analyzed using Prizm statistical analysis software. […] The results from 2 sets of experiments follow.
(§4) Data from Experiment 1 was fitted through sigmoidal dose response curves and analyzed using Prizm statistical analysis software.

Panc1 (AR+) = test: as above; settings: for TI on Resting PBMC: IC50 resting PBMC / IC50 Panc1; for TI on Stimulated PBMC: IC50 stimulated PBMC / IC50 Panc1
Protocol: as §2, §3, §4

[2] = PC-3, 72 h, PC3, Tables I and II, titrated 3 uM to 200 uM, 3 days
[3] = PC-3, read-out: In vitro proliferation IC50, PC3, Table IV
[4] = LNCaP, read-out: In vitro proliferation IC50
[5] = Experiment 1, 0 = higher toxicity in PBMC

SMILES: CCC(=O)O[C@]1(C(=O)CO)CC[C@H]2[C@@H]3CCC4=CC(=O)CC[C@]4(C)[C@H]3CC[C@@]21C [CB-03-01, cortexolone 17α-propionate]
- Therapeutic Index = IC50 stimulated PBMC/IC50 cancer cell, AVERAGE (7 cancer cell lines): 0
- IC50 (PC3; [2]): 190 µM
- IC50 (PC3; [3]): 190 µM
- Therapeutic Index = IC50 resting PBMC/IC50 cancer cell (PC3; human, 3 days): 0
- Therapeutic Index = IC50 stimulated PBMC/IC50 cancer cell (PC3; human, 3 days): 0
- IC50 (LNCaP; LNCaP, 72 h): 33 µM
- IC50 (LNCaP; [4]): 33 µM
- Therapeutic Index = IC50 resting PBMC/IC50 cancer cell (LNCaP; human, 3 days): 0
- Therapeutic Index = IC50 stimulated PBMC/IC50 cancer cell (LNCaP; human, 3 days): 0
- Therapeutic Index = IC50 resting PBMC/IC50 cancer cell (Panc1; human, 3 days): 0
- Therapeutic Index = IC50 stimulated PBMC/IC50 cancer cell (Panc1; human, 3 days): 0
- Therapeutic Index = IC50 resting PBMC/IC50 cancer cell (MiaPaca2; human, 3 days): 0
- Therapeutic Index = IC50 stimulated PBMC/IC50 cancer cell (MiaPaca2; human, 3 days): 0
- Therapeutic Index = IC50 resting PBMC/IC50 cancer cell (stimulated PBMC): 1
- Therapeutic Index = IC50 resting PBMC/IC50 cancer cell (MCF7; human, 3 days): 0
- Therapeutic Index = IC50 stimulated PBMC/IC50 cancer cell (MCF7; human, 3 days): 0

SMILES: CC(=O)O[C@]1(C(C)=O)CC[C@H]2[C@@H]3C=C(Cl)C4=CC(=O)[C@@H]5C[C@@H]5[C@]4(C)[C@H]3CC[C@@]21C [Cyproterone Acetate, reference compound]
- pancreatic tumor size relative to the size when treatment was initiated ([1]; Example 5, MiaPaca-2 xenograft, nude mice, SC daily 28 days, high dose of cortexolone 17α-benzoate (40 mg/kg)): 12 fold
- pancreatic tumor size relative to the initial tumor size ([1]; Example 6, MiaPaca-2 xenograft, nude mice, SC daily 28 days, for the time of treatment): ≥ 12 fold
- pancreatic tumor size relative to the initial size ([1]; Example 22, MiaPaca2 xenograft, male nude mice, 40 mg/Kg SC daily 28 days, treatment period): 12 fold
- Median survival ([1]; Example 22, MiaPaca2 xenograft, 40 mg/Kg SC daily 28 days): 40 days
- Therapeutic Index = IC50 stimulated PBMC/IC50 cancer cell, AVERAGE (7 cancer cell lines): 1
- IC50 (PC3; [2]): 90 µM
- IC50 (PC3; [3]): 90 µM
- Therapeutic Index = IC50 resting PBMC/IC50 cancer cell (PC3; PC3, Table IV): 1
- Therapeutic Index = IC50 stimulated PBMC/IC50 cancer cell (PC3; PC3, Table VII): 1
- IC50 (LNCaP; LNCaP, 72 h): 22 µM
- IC50 (LNCaP; [4]): 22 µM
- Therapeutic Index = IC50 resting PBMC/IC50 cancer cell (LNCaP; LNCaP, Table IV): 3
- Therapeutic Index = IC50 stimulated PBMC/IC50 cancer cell (LNCaP; LNCaP, Table VII): 3
- Therapeutic Index = IC50 resting PBMC/IC50 cancer cell (Panc1; Panc1, Table IV): 1
- Therapeutic Index = IC50 stimulated PBMC/IC50 cancer cell (Panc1; Panc1, Table VII): 1
- Therapeutic Index = IC50 resting PBMC/IC50 cancer cell (MiaPaca2; MiaPaca2, Table IV): 2
- Therapeutic Index = IC50 stimulated PBMC/IC50 cancer cell (MiaPaca2; MiaPaca2, Table VII): 2
- Therapeutic Index = IC50 resting PBMC/IC50 cancer cell (stimulated PBMC): 1
- TI on Resting PBMC (MiaPaca2 (AR low); [5]): 0
- TI on Resting PBMC (MiaPaca2 (AR low); Experiment 2): 1
- TI on Stimulated PBMC (MiaPaca2 (AR low); [5]): 2
- TI on Stimulated PBMC (MiaPaca2 (AR low); Experiment 2): 2
- TI on Resting PBMC (Panc1 (AR+); [5]): 0
- TI on Resting PBMC (Panc1 (AR+); Experiment 2): 4
- TI on Stimulated PBMC (Panc1 (AR+); [5]): 1
- TI on Stimulated PBMC (Panc1 (AR+); Experiment 2): 1
- Therapeutic Index = IC50 resting PBMC/IC50 cancer cell (MCF7; MCF7, Table IV): 1
- Therapeutic Index = IC50 stimulated PBMC/IC50 cancer cell (MCF7; MCF7, Table VII): 1
